Assay [1] deals with T1, Mitogen-activated protein kinase 1 (Homo sapiens, UniProt P28482). Kind of assay: Inhibition of MEK U911-activated ERK2 (unknown origin) using ERKtide as substrate preincubated for 20 mins followed by substrate addition in presence of ATP at Km concentration after 20 mins by rapidfire mass spectrometry analysis.
Assay [2] concerns the target T1, Mitogen-activated protein kinase 1. Kind of assay: Inhibition of MEK U911-activated ERK2 (unknown origin) using ERKtide as substrate preincubated for 20 mins followed by substrate addition in presence of 1 mM ATP after 10 mins by rapidfire mass spectrometry analysis.
For assay [3], the target named is T2, Mitogen-activated protein kinase; ERK1/ERK2 (Homo sapiens, UniProt P27361+P28482). Kind of assay: Inhibition of ERK1/2 in human A375 cells assessed as inhibition of ERK phosphorylation after 2 hrs. It is filed as cell-based.
The target of assay [4] is T2, Mitogen-activated protein kinase; ERK1/ERK2. Kind of assay: Inhibition of ERK1/2 in human A375 cells assessed as inhibition of RSK phosphorylation after 2 hrs. The class given is cell-based.
For assay [5], the target named is Voltage-gated inwardly rectifying potassium channel KCNH2 (Homo sapiens, UniProt Q12809).
Sequence of Voltage-gated inwardly rectifying potassium channel KCNH2 (Q12809 whole entry): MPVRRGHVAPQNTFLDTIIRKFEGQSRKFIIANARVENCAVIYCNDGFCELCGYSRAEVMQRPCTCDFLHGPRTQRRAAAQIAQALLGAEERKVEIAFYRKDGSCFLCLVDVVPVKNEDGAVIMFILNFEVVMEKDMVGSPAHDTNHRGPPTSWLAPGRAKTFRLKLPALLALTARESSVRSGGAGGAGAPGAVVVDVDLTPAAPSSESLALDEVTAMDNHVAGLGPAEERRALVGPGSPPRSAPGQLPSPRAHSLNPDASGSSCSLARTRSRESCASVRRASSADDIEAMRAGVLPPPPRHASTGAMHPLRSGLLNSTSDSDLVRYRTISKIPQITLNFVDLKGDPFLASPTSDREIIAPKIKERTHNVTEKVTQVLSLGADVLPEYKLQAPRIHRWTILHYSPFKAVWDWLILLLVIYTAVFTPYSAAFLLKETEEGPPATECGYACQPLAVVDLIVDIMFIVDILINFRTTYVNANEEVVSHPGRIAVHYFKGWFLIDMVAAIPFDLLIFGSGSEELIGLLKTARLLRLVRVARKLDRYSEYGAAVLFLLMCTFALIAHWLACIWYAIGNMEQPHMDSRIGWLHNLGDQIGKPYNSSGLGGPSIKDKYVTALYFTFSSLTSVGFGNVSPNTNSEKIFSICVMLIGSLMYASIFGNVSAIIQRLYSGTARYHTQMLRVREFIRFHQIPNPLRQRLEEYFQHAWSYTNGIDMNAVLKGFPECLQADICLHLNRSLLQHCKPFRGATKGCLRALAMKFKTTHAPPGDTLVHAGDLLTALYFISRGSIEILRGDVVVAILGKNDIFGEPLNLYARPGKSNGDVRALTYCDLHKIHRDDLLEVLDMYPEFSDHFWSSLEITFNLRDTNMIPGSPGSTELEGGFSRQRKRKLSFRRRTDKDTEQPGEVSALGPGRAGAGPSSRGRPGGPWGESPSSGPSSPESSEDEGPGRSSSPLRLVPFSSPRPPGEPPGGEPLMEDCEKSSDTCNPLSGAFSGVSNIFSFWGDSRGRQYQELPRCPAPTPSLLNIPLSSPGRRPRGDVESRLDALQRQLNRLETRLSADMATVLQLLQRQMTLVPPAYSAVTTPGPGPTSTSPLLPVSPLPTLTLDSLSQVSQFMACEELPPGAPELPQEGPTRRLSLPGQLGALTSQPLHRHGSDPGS
The target of assay [6] is T1, Mitogen-activated protein kinase 1.
The target is the same in assay [7]. This is another data set of the same source.
Assay [8] has the same target. The source holds these as a separate data set.
The target is the same in assay [9]. This is another data set of the same source.
Assay [10] has the same target. This is another data set of the same source.
The target is the same in assay [11]. The source holds these as a separate data set.

The record followed here is ChEMBL document CHEMBL4321846, “Discovery of a Potent and Selective Oral Inhibitor of ERK1/2 (AZD0364) That Is Efficacious in Both Monotherapy and Combination Therapy in Models of Nonsmall Cell Lung Cancer (NSCLC)” (J Med Chem, 2019).

The structures appear in SMILES notation. pIC50: −log10 of the molar value.

T1 sequence (P28482 whole entry): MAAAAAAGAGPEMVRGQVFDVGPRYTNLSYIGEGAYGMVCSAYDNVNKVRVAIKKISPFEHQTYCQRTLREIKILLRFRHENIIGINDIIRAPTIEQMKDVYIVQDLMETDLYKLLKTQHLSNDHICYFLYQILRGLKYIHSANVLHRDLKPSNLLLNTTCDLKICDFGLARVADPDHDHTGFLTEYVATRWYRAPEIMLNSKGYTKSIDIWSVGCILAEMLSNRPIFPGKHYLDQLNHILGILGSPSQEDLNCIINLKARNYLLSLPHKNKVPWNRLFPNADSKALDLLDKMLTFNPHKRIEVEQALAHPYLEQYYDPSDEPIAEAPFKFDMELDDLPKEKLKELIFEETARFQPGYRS

Turning to `Cc1cnc(Nc2ccnn2C)nc1-c1cn2c(n1)C(=O)N(Cc1ccc(F)c(F)c1)[C@@H](C)C2`, the pIC50 (as a rule, −log10 of the IC50, conventionally taken in molar units) in [1] is greater than 9.52; in assay [2], 9.49; in assay [5] it was 4.64. The results for the IC50 in assay [3] and in assay [4] were 3.4 nM and 38 nM, respectively.

As for `Cc1cnc(Nc2ccnn2C)nc1-c1cn2c(n1)C(=O)N(Cc1cccc(Cl)c1)CC2`, the pIC50 in [1] was greater than 9.52; in assay [2] it was 9.47. For the same compound, the IC50 – broadly, the concentration that inhibits the measured activity by half – in [3] was 4.7 nM; in assay [4] it was 12 nM.

On to `Cc1cnc(Nc2ccnn2C)nc1-c1cn2c(n1)C(=O)N(Cc1ccc(F)c(F)c1)CC2`, for which the negative-log IC50 (pIC50) in assay [1] is 9.08; in assay [2], 8.59; in assay [5] it was 4.64. Moreover, the IC50 in assay [3] turned out to be 9.1 nM; in assay [4], 31 nM.

`Cc1cnc(Nc2ccnn2C)nc1-c1cc2n(c1)CCN(Cc1cccc(Cl)c1)C2=O`: the pIC50 in assay [1] was greater than 9.52; in [2], 9.89. The IC50 in [3] is greater than 14000 nM; in [4], 10 nM.

Regarding `COC[C@H]1Cn2cc(-c3nc(Nc4ccnn4C)ncc3C)cc2C(=O)N1Cc1cccc(C)n1`, the figures for the pIC50 in assay [1] and in assay [2] were greater than 9.52 and 9.22, respectively. In addition, the values for the IC50 in assay [3] and in [4] were 30 nM and 60 nM, respectively.

`Cc1cnc(Nc2ccnn2C)nc1-c1cc2n(c1)CCN(Cc1ccc(F)c(F)c1)C2=O`: the negative logarithm of the IC50 (pIC50) in assay [1] was greater than 9.52; in assay [2], 9.46. Further, in assay [4], the IC50 is 20 nM.

With `CC(C)Nc1cc(-c2c[nH]c(C(=O)N[C@H](CO)c3cccc(Cl)c3)c2)c(Cl)cn1`, the Ka in assay [6] was found to be 7.5 ×10⁻⁵ /M/s; in assay [7] it was 1.3 ×10⁻⁶ /M/s. Besides, the figures for the Kdiss in [8] and in [9] were 7.4 ×10⁻³ /s and 4.1 ×10⁻⁴ /s, respectively. Moreover, the results for the T1/2 in assay [10] and in assay [11] were 2 min and 35 min, respectively.

`Cc1cccc(CN2C(=O)c3cc(-c4nc(Nc5ccnn5C)ncc4C)cn3C[C@H]2C)n1`: the figures for the Ka in assay [6] and in [7] were 1.3 ×10⁻⁶ /M/s and 1.9 ×10⁻⁶ /M/s, respectively. The Kdiss in assay [8] was 1 ×10⁻³ /s; in [9], 3.2 ×10⁻⁴ /s. Moreover, the T1/2 turned out to be 11.9 min in [10] and 37 min in assay [11].

As to `Cn1nccc1Nc1nccc(-c2ccn([C@H](CO)c3ccc(Cl)c(F)c3)c(=O)c2)n1`, the Ka in [7] was 9.8 ×10⁻⁶ /M/s. The compound further gave a Kdiss in assay [8] of 9.9 ×10⁻³ /s. Besides, the T1/2 turned out to be 1.2 min in assay [10] and 0.8 min in assay [11].

Turning to `O=C(Nc1ccc2[nH]nc(-c3ccncc3)c2c1)[C@@H]1CCN(CC(=O)N2CCN(c3ccc(-c4ncccn4)cc3)CC2)C1`, the Ka in [6] came to 9.4 ×10⁻⁵ /M/s; in assay [7], 1.3 ×10⁻⁶ /M/s. The compound further showed a Kdiss in assay [8] of 4.4 ×10⁻⁵ /s. Also, the T1/2 in [10] was 291 min; in assay [11], 127 min.
